Laboratory results taken from the supplement of paper PMC10307832.

What was measured:
Experiment in all cases: relative viability (nuclei count vs DMSO), 5 days (fraction); higher = more cells survive
[1] = compound: N#CC1(c2ccc(NC(=O)c3cccnc3NCc3ccncc3)cc2)CCCC1 [Apatinib] + Nc1ncn([C@H]2C[C@H](O)[C@@H](CO)O2)c(=O)n1 [Decitabine] (partner 2 µM)
Summary of the method: (§1)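 Medians of duplicate plates are given as relative viability. That measure is the nuclei count in treated wells divided by the count in vehicle wells. Counts were taken on 4× images of lung cancer cell lines in 1536-well plates, 5 days after pin-tool dosing the day after seeding with one drug alone or a fixed anchor-drug dose plus five library-drug doses (not always all listed) in √10 steps.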

[2] = compound: N#CC1(c2ccc(NC(=O)c3cccnc3NCc3ccncc3)cc2)CCCC1 [Apatinib] + C[C@@H](Oc1cc(-c2cnn(C3CCNCC3)c2)cnc1N)c1c(Cl)ccc(F)c1Cl [Crizotinib] (partner 1 µM)
Summary of the method: as §1

[3] = compound: CN(C)C(=N)NC(=N)N [Metformin] + NC(=O)Nc1cc(-c2cccc(F)c2)sc1C(=O)N[C@H]1CCCNC1 [AZD7762] (partner 0.2 µM)
Summary of the method: as §1

[4] = compound: CN(C)C(=N)NC(=N)N [Metformin] + CC(=O)c1c(C)c2cnc(Nc3ccc(N4CCNCC4)cn3)nc2n(C2CCCC2)c1=O [Palbociclib] (partner 0.5 µM)
Summary of the method: as §1

Cell Line	relative viability ([1]; first compound 0.08 µM)	relative viability ([1]; first compound 0.253 µM)	relative viability ([1]; first compound 0.8 µM)	relative viability ([1]; first compound 2.53 µM)	relative viability ([1]; first compound 8 µM)	relative viability ([2]; first compound 0.08 µM)	relative viability ([2]; first compound 0.253 µM)	relative viability ([2]; first compound 0.8 µM)	relative viability ([2]; first compound 2.53 µM)	relative viability ([2]; first compound 8 µM)	relative viability ([3]; first compound 10 µM)	relative viability ([3]; first compound 31.62 µM)	relative viability ([3]; first compound 100 µM)	relative viability ([3]; first compound 316.23 µM)	relative viability ([3]; first compound 1000 µM)	relative viability ([4]; first compound 10 µM)	relative viability ([4]; first compound 31.62 µM)	relative viability ([4]; first compound 100 µM)	relative viability ([4]; first compound 316.23 µM)	relative viability ([4]; first compound 1000 µM)
A-427	0.604	0.583	0.533	0.575	0.618	0.902	0.969	0.919	0.808	0.705	0.634	0.717	0.771	0.623	0.633	0.501	0.546	0.516	0.53	0.389
201T	0.863	0.895	0.842	0.85	0.781	1.02	1.04	0.996	1.03	0.992	–	0.5	0.581	0.476	0.609	–	0.376	0.397	0.329	0.382
HARA	0.676	0.538	0.438	–	0.671	1.04	0.944	1.05	1.05	0.806	0.279	0.47	0.362	0.293	0.287	0.323	0.297	0.442	0.279	0.394
NCI-H3122	0.505	0.431	0.44	0.495	0.433	0.3	0.246	0.256	0.27	0.328	0.867	0.881	0.984	0.845	0.809	0.174	0.188	0.228	0.191	0.184
NCI-H1651	0.609	0.53	0.611	0.593	0.41	0.916	0.86	0.84	0.8	0.733	0.467	0.519	0.495	0.473	0.587	0.556	0.681	0.652	0.519	0.605
NCI-H2085	0.592	0.573	0.582	0.587	0.712	0.89	0.794	0.797	0.777	0.623	0.873	0.99	0.979	0.893	0.989	0.475	0.447	0.469	0.435	0.453
ChaGo-K-1	0.536	0.56	0.522	0.53	0.43	–	1.09	1.1	1.05	0.901	0.788	0.956	0.938	0.849	0.862	0.92	0.897	0.957	0.716	0.967
HCC-44	0.963	0.929	0.887	0.95	0.89	0.807	0.858	0.779	0.716	0.705	–	1	1.01	0.994	1.02	–	0.917	0.959	0.93	0.887
PC-3 [JPC-3]	–	0.869	0.763	0.908	1.04	1.02	0.962	0.922	0.933	0.901	0.916	1.12	–	0.798	0.651	0.444	0.466	–	0.46	0.503
H3255	0.707	0.553	0.578	0.542	0.517	0.956	0.841	0.907	0.723	0.786	0.898	0.853	0.814	0.845	0.738	0.309	0.35	0.307	0.309	0.321
RERF-LC-KJ	0.755	0.7	0.637	0.66	0.746	0.776	0.834	0.778	0.704	0.629	0.703	0.927	0.572	0.799	1	0.907	1.04	0.896	0.823	0.993
NCI-H2347	0.666	0.592	0.67	0.674	0.804	0.795	0.751	0.772	0.578	0.645	0.662	0.892	0.856	0.771	0.862	0.443	0.453	0.404	0.382	0.408
LK-2	0.299	0.298	0.273	0.21	0.273	0.243	0.218	0.212	0.237	0.242	0.359	0.454	0.512	0.361	0.548	0.86	0.837	0.706	0.718	0.877
PC-14	0.28	0.293	0.189	0.228	0.28	0.925	0.99	0.841	0.863	0.915	0.31	0.343	0.383	0.304	0.392	0.533	0.586	0.547	0.461	0.539
NCI-H838	0.489	0.48	0.493	0.442	0.469	0.892	0.936	0.77	0.76	0.775	0.972	0.947	0.989	0.99	0.94	0.295	0.278	0.261	0.271	0.298
EKVX	0.352	0.291	0.339	0.309	0.298	0.793	1.06	0.941	0.654	0.671	–	0.69	0.795	0.609	0.674	–	0.312	0.355	0.384	0.357
NCI-H1944	0.41	0.466	0.401	0.421	0.504	1.03	1.17	0.998	0.983	0.911	0.406	0.586	0.48	0.626	0.527	0.386	0.44	0.404	0.344	0.404

Cell Line	relative viability ([1]; first compound 0.08 µM)	relative viability ([1]; first compound 0.253 µM)	relative viability ([1]; first compound 0.8 µM)	relative viability ([1]; first compound 2.53 µM)	relative viability ([1]; first compound 8 µM)	relative viability ([2]; first compound 0.08 µM)	relative viability ([2]; first compound 0.253 µM)	relative viability ([2]; first compound 0.8 µM)	relative viability ([2]; first compound 2.53 µM)	relative viability ([2]; first compound 8 µM)	relative viability ([3]; first compound 10 µM)	relative viability ([3]; first compound 31.62 µM)	relative viability ([3]; first compound 100 µM)	relative viability ([3]; first compound 316.23 µM)	relative viability ([3]; first compound 1000 µM)	relative viability ([4]; first compound 10 µM)	relative viability ([4]; first compound 31.62 µM)	relative viability ([4]; first compound 100 µM)	relative viability ([4]; first compound 316.23 µM)	relative viability ([4]; first compound 1000 µM)
EPLC-272H	0.395	0.324	0.405	0.307	0.342	0.944	0.933	0.767	0.8	0.991	0.23	0.351	0.345	0.334	0.259	0.294	0.32	0.339	0.311	0.391
NCI-H1666	0.756	0.727	0.692	0.737	0.612	1.15	1.28	0.985	1.14	0.718	0.897	0.993	0.98	0.869	1.1	0.695	0.616	0.642	0.681	0.714
NCI-H322M	0.75	0.709	0.64	0.833	0.783	0.917	0.925	0.946	0.825	0.776	0.569	0.641	0.649	0.464	0.566	0.54	0.495	0.512	0.551	0.488
NCI-H1437	0.583	0.584	0.524	0.505	0.46	1.01	1	0.92	0.726	0.632	1.17	1.1	1.07	1.09	0.551	0.384	0.459	0.439	0.389	0.4
NCI-H23	0.32	0.333	0.304	0.332	0.475	0.49	0.578	0.421	0.49	0.57	0.351	0.178	0.348	0.293	0.421	0.583	0.563	0.495	0.508	0.553
NCI-H647	0.376	0.413	0.478	0.414	0.583	1.18	1.23	1	0.846	0.737	0.414	0.467	0.495	0.418	0.513	0.222	0.436	0.555	0.382	0.417
HCC-78	0.7	0.694	0.692	0.701	0.913	0.328	0.325	0.326	0.347	0.346	–	0.99	0.946	0.846	0.917	0.479	0.507	0.452	0.505	0.483
LCLC-97TM1	0.268	0.244	0.237	0.185	0.228	0.449	0.409	0.372	0.264	0.161	0.205	0.244	0.205	0.27	0.306	–	0.239	0.321	0.209	0.21
NCI-H650	0.35	0.331	0.332	0.418	0.626	0.664	0.843	0.676	0.562	0.43	1.03	1.22	0.896	0.835	1.18	0.33	0.278	0.385	0.326	0.348
HOP-62	0.221	0.212	0.2	0.428	0.519	0.989	–	0.868	0.935	0.654	0.248	0.41	0.416	0.325	0.492	0.372	0.405	0.358	0.387	0.374
LC-2-ad	0.862	0.776	0.792	0.668	0.698	0.477	0.496	0.463	0.473	0.482	–	0.885	0.906	0.811	0.87	–	0.341	0.313	0.27	0.347
NCI-H2126	0.589	0.637	0.666	0.566	0.547	1.03	0.945	1.07	0.957	0.894	0.953	0.963	0.916	0.92	0.935	0.399	0.349	0.307	0.322	0.328
NCI-H1975	0.406	0.372	0.413	0.381	0.466	1	0.967	0.78	0.814	0.78	0.772	0.734	0.681	0.689	0.637	0.438	0.682	0.584	0.591	0.644
NCI-H1734	0.532	0.549	0.482	0.563	0.623	0.67	0.812	0.76	0.596	0.579	0.61	0.542	0.541	0.579	0.53	0.284	0.329	0.292	0.359	0.371
NCI-H727	0.89	–	0.973	0.985	0.729	0.756	0.693	0.719	0.679	0.583	0.655	0.624	0.565	–	0.525	0.672	0.78	0.818	–	0.618
LU99A	1.01	1.01	0.843	0.895	0.774	0.585	0.55	0.526	0.444	0.458	0.244	0.249	0.252	0.223	0.383	0.387	0.352	0.347	0.35	0.31
